Data on three compounds can be found in patent US20040019080A1, “Prevention and treatment of migraine and other recurrent headaches using leukotriene LTD4 receptor blocker drugs” (priority 1998, published 2004).

The subject of one series is patients with migraines. Briefly: Post-publication and unsolicited patient/physician reports, chronic and emergent migraine treatment. The class given is in vivo, human. Particulars: unsolicited letters, comments, website posting. From the text: The Applicant herein (Sheftell) initially published their leukotriene-migraine findings in abstract form and as a poster session in mid-1999, at a conference of physicians who specialize in treating headaches. That presentation was summarized shortly thereafter in Family Practice News, a newsletter for physicians, and it was followed in February 2000 by a full article in a refereed journal (Sheftell et al, “Montelukast in the prophylaxis of migraine: “potential role for leukotriene modifiers,” Headache 40: 158-63 (2000)).

The test system of series [1] is asthma patients. The conditions noted are these: cited from earlier work.
For another series, the target named is T1, LTD4 receptors (Homo sapiens, UniProt Q9Y271).
T1 sequence (Q9Y271 1-337): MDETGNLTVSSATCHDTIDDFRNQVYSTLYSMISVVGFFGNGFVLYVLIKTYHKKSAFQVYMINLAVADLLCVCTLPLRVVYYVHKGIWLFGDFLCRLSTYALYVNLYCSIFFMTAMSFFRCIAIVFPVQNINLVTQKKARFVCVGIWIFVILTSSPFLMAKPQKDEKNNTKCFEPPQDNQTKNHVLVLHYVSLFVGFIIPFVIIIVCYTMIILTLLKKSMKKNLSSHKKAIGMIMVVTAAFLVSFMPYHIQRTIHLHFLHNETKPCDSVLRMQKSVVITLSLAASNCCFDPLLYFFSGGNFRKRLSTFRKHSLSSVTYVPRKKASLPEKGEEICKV
Particulars: cited from earlier work.

For the next series, the system named is LTE4 receptors. The conditions noted are these: cited from earlier work.
For the next series, the system named is LTC4 receptors. The conditions noted are these: cited from earlier work.
For series [2], the system named is asthma patients. Particulars: cited from earlier work; for safety and tolerability in chronic use: used every day over a continuous period of years.
Series [3] concerns patients who suffered from migraine without aura. Kind of series: Open-label clinical trial of daily montelukast in long-term migraine sufferers.

Molecules are shown by their SMILES. Entries after “also recorded” stand apart in the source; their conditions may differ. Like-named read-outs stand apart in the source and are kept apart here.

As to `COc1cc(C(=O)NS(=O)(=O)c2ccccc2C)ccc1Cc1cn(C)c2ccc(NC(=O)OC3CCCC3)cc12` [zafirlukast], the “reported outcome of chronic daily use for migraines” value in the series on patients with migraines is on record as “benefitted more from that treatment than from any other treatment”. Also, the “asthma patients reporting headaches” value in the series with asthma patients [1] (more than 4000 asthma patients tested) is listed as 12.9%. For the same compound, on LTD4 receptors, the “blocking / activity at LTD4 receptors” value is “appear to block; also recorded: some level of activity”. For the same compound, in the series with LTE4 receptors, the “blocking / activity at LTE4 receptors” value was “appear to block; also recorded: some level of activity”. Moreover, the “blocking of LTC4 receptors” value with LTC4 receptors was “do not appear to block”. In addition, the “time of daily oral ingestion before noticeable effects in reducing the frequency of asthma attacks” value in the series on asthma patients [2] (tablets, daily oral) is “about 4 weeks”. Further, the “safety and tolerability in chronic use” value with asthma patients [2] is “generally safe, well-tolerated, and free of serious side effects”.

Regarding `CC(C)(O)c1ccccc1CC[C@@H](SCC1(CC(=O)O)CC1)c1cccc(/C=C/c2ccc3ccc(Cl)cc3n2)c1` [montelukast], in the series on asthma patients [1] (nearly 2000 asthma patients tested), the “asthma patients reporting headaches” value is reported as 18.4%. Also, in the series on asthma patients [2], the “safety and tolerability in chronic use” value was “generally safe, well-tolerated, and free of serious side effects”. In series [3] (3-month treatment, 17 patients), the “adverse events reported by patients” value is given as “no adverse events were reported; also recorded: None of the patients reported any adverse effects”. Further, in series [3] (all reporting patients), the “patients reporting a decrease in the number of moderate headaches” value was 70%. Further, the “number of mild headaches reported during treatment” value in series [3] (mild category, baseline 1.53, mean per month (FIG. 2)) worked out at 2.02. For the same compound, the “mean number of moderate attacks per month during treatment” value in series [3] (moderate category, baseline 5.5, not statistically significant) was determined as 4.68 attacks per month. In addition, the “patients showing a greater than 60% reduction in the frequency of severe attacks” value in series [3] (montelukast 10 mg tablets daily, 3-month treatment vs 2-month baseline, 17 patients) amounted to 41%. Further, the “patients with reduction in frequency of severe attacks after dose escalation” value in series [3] (of 4 patients escalated from 10 mg once daily to 10 mg twice daily) stood at 4 patients. Moreover, the “patients with a 33% or greater reduction in the frequency of severe attacks” value in series [3] (of the remaining 15 patients) was found to be 13 patients. Also, the “mean number of severe attacks per month during treatment” value in series [3] (severe category, baseline 2.78, p<0.025) amounted to 1.31 attacks per month.

`CC(c1cc2ccccc2s1)N(O)C(N)=O` (stereo not drawn) [zileuton]: the “users reporting headaches as unwanted side effect” value with asthma patients [1] (zileuton 4 times daily at 600 mg, placebo 24.0%) is given as 24.6%.
